Test results as given in patent US9255258B2 (priority 2009, dated 2016).
Like-named read-outs stand apart in the source and are kept apart here.

What was measured:
Klenow (exo-) = Klenow (exo-) (Escherichia coli, UniProt P00582, D355A/E357A); conditions: P2-1 primer (template nucleotide A); 200 nM each of four base-labeled nucleotides, 250 nM Klenow (exo-), 10 mM CaCl2
Experimental: The following procedure was conducted using a SOLID sequencing instrument (SOLiD 0025) (Applied Biosystems, Foster City, Calif.), and template/primer duplexes immobilized on SOLiD S3 clonal beads, SOLiD flowcells, and Klenow polymerase.
Seven μM of the P2 primer, in 1×SSPE (150 mM NaCl, 10 mM sodium phosphate, 1 mM EDTA), was added to a SOLiD flowcell containing beads/template immobilized on a glass slide, at 25° C., then hybridized at 75° C. for 1 minute, 70° C. for 2 minutes, 65° C. for 2 minutes, 60° C. for 2 minutes, and washed with 1× Instrumentation Buffer (AB Part No. 4389784).
The labeled nucleotides were obtained from PerkinElmer Life and Analytical Science (Boston, Mass.): Cy5-dUTP, Cy3-dCTP, FAM-dGTP, and Texas Red (TxR)-dATP (base-labeled nucleotides). The Klenow fragment polymerase was obtained from New England Biolabs (No. M0212L, Ipswich, Mass.).
The beads were washed with 3 mL of Universal Buffer (50 mM NaCl, 10 mM Tris-HCl (pH 8), 10 mM CaCl2, 2 mM DTT). And 0.2 mL of Sensing Buffer Mix (200 nM each of Cy5-dUTP, Cy3-dCTP, Fam-dGTP, and Texas Red-dATP; 250 nM Klenow (exo-) in the Universal Buffer) was injected into the flowcell and incubated for 5 minutes at room temperature. […]

[1] = target: Phi29 (exo-) (D169A mutant) (Bacillus phage phi29, UniProt P03680, D169A)
Experimental: Base Reading Mix: 50 mM Tris (pH 7.5), 50 mM NaCl, 5 mM CaCl2, 0.2% BSA, 80 μg/mL glucose oxidase; 2000 U/mL Katalase; 1 mM Trolox; 0.5% glucose; 250 nM Phi29 (exo-) (D169A mutant), 500 nM non-hydrolyzable nucleotide (AF647-C6 alkyl linker-alpha-thio-dA4P nucleotide analog, labeled at the terminal phosphate with ALEXA FLUOR 647).
Commercial nanoparticles (605 ITK SAV quantum dots, Invitrogen, catalog # Q10001MP) were immobilized onto PEG/PEG-biotin coverslip surfaces at 5 pM for 4 minutes. The surface-immobilized nanoparticles were saturated with hairpin molecules via the biotin in the loop.
All the transient-binding and extension steps as well as the protocols and the imaging conditions were identical to the ones described in Example 8 above (6-Base Extension, 2-Color Sequencing, in the Presence of Calcium). In this experiment only one non-hydrolyzable-AF647-dA4P were used in all transient-binding steps.
The transient-binding reaction steps, using labeled non-hydrolyzable nucleotides steps, were conducted at room temperature and included: • 1.

Substance	bead fluorescence after wash (Klenow (exo-))	signal from transiently-bound nucleotide ([1]; Base Reading Mix containing 5 mM MnCl2 (instead of CaCl2), correct nucleotide, 500 nM)	signal from transiently-bound nucleotide ([1]; after addition of CaCl2 (approximated 5-10 mM) to the manganese reaction, without washing)
Cy5-dUTP	fluoresce to a greater degree than the other dye-labeled nucleotides		
AF647-C6 alkyl linker-alpha-thio-dA4P nucleotide analog [alpha-thio-dA4P-AF647]		no detectable signal	detectable immediately upon addition of the calcium
